Source: ChEMBL document CHEMBL3734711, “Discovery of novel sphingosine kinase 1 inhibitors via structure-based hierarchical virtual screening” (Medchemcomm, 2015)
Calls of active or inactive are those of the source. The calls are words filed in the database; no cut-off is given here.

Tests used:
Sphingosine kinase 2 = molecular target: T1, Sphingosine kinase 2 (Homo sapiens, UniProt Q9NRA0); experiment: Inhibition of human recombinant SphK2 preincubated for 5 mins followed by substrate addition measured for 60 mins by plate reader assay
T1 sequence (Q9NRA0 whole entry): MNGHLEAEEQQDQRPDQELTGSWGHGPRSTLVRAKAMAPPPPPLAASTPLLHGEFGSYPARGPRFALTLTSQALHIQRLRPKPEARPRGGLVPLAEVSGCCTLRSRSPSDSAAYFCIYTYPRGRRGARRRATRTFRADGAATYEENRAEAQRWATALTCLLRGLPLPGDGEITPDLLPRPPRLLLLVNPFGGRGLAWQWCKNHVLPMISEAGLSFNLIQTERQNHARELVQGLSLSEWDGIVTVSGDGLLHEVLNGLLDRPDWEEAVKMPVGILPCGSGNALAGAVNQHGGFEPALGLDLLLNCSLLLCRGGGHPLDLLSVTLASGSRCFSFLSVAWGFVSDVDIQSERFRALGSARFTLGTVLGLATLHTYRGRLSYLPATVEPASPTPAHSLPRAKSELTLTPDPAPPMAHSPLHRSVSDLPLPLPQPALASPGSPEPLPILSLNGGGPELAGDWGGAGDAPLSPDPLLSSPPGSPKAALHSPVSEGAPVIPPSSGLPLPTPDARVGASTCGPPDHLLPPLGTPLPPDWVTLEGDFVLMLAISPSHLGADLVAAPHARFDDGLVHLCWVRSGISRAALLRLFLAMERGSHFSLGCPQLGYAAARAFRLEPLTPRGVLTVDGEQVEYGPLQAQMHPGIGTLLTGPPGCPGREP

[1] = molecular target: T2, Sphingosine kinase 2 (Homo sapiens) (UniProt Q9NRA0); experiment: Inhibition of human recombinant SphK2 at 50 uM preincubated for 5 mins followed by substrate addition measured for 60 mins by plate reader assay
T2 sequence (whole entry): T1 sequence (Q9NRA0 whole entry)

[2] = molecular target: T2, Sphingosine kinase 2 (Homo sapiens); experiment: Inhibition of human recombinant SphK2 at 500 uM preincubated for 5 mins followed by substrate addition measured for 60 mins by plate reader assay
Sphingosine kinase 1 [3] = molecular target: T3, Sphingosine kinase 1 (Homo sapiens, UniProt Q9NYA1); experiment: Inhibition of human recombinant SphK1 at 50 uM preincubated for 5 mins followed by substrate addition measured for 60 mins by plate reader assay
Sphingosine kinase 1 [4] = molecular target: T3, Sphingosine kinase 1; experiment: Inhibition of human recombinant SphK1 preincubated for 5 mins followed by substrate addition measured for 60 mins by plate reader assay
U-937 = experiment: Antiproliferative activity against human U937 cells after 72 hrs by MTT assay; format: functional, cell-based

T3 sequence (Q9NYA1 whole entry): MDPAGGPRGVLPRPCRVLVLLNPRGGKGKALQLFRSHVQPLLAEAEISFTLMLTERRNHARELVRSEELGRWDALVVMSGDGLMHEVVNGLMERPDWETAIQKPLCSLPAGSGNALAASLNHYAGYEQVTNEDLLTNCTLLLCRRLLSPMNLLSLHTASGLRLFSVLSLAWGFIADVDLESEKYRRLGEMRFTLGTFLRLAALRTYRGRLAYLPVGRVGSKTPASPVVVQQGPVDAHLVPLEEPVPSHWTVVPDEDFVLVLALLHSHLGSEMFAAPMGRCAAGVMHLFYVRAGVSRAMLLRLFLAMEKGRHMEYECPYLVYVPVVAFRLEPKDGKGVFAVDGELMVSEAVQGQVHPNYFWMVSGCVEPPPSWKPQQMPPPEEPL

| IC50 (Sphingosine kinase 2) | inhibition [1] | inhibition [2] | inhibition (Sphingosine kinase 1 [3]) | IC50 (Sphingosine kinase 1 [4]) | Compound | Activity (U-937) |
| --- | --- | --- | --- | --- | --- | --- |
| 16.3 µM |  |  |  |  | CCCCCCCCCCCCC/C=C/[C@@H](O)[C@H](CO)N(C)C [DIMETHYLSPINGOSINE] |  |
| 31.3 µM | Active | Active | > 60% | 40.5 µM | CCCCCCCCCCCCCC(=O)Nc1nc2ccccc2[nH]1 |  |
| 17.1 µM | Active | Active | > 60% | 23.1 µM | O=C(N/N=C/c1cccc(OCc2ccccc2)c1)c1cc(O)c(O)c(O)c1 | Dose-dependent effect |
| 62.6 µM | Active | Active | > 60% | 61.6 µM | CCCOc1ccc(N2C(=O)CC(Nc3ccc(CCO)cc3)C2=O)cc1 (configuration not stated) |  |
